This note sets out measurements from PubChem BioAssay AID720620 (The Scripps Research Institute Molecular Screening Center, 2013).

Structures are written as SMILES. Calls of active or inactive are those of the source.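 How the source made its calls: active means at least 50% inhibition of the human mitochondrial methionine-charging enzyme at 10 µM; inactive means under 50% inhibition at 10 µM.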

This experiment addresses Methionine--tRNA ligase, mitochondrial (Homo sapiens) (UniProt Q96GW9). Kind of experiment: inhibition of human MARS2 tRNA charging – biochemical, radioactivity, [3H]methionine, two concentrations, counter-screen for T. brucei MetRS inhibitor project, late-stage follow-up (AID 720620). The note with it: recombinant human mitochondrial MetRS, [3H]Met-tRNA charging, 60 min, stronger effect = higher value.

Sequence of Methionine--tRNA ligase, mitochondrial (Homo sapiens) (Q96GW9 whole entry, looked up): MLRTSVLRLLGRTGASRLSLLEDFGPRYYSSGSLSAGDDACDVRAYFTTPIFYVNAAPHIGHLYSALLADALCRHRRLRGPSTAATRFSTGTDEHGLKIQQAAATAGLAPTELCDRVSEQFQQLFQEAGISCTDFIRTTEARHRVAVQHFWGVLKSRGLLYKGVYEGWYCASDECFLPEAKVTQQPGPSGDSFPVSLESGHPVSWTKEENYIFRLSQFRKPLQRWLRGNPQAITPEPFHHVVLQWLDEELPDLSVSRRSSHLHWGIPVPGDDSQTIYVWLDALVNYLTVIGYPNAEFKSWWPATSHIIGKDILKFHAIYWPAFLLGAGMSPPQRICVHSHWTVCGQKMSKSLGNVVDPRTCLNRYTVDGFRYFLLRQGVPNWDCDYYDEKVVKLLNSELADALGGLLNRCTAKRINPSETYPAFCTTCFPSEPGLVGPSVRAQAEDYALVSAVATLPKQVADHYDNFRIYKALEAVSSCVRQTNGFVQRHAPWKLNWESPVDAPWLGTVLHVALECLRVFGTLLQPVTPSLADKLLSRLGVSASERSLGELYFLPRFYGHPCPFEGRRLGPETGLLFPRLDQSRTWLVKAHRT

`COc1ccccc1-n1c(SCC(=O)Nc2ccc(Cl)cc2)nc(O)c(Cc2ccccc2)c1=O`: the inhibition was -19.7% (inactive) (at 10 µM) and -31.6% (inhibition, at 1 µM).

Consider `O=C(NCc1nc2ccccc2[nH]1)C1=C[C@@H](c2ccc(Br)cc2)C[C@@H](OCCCCO)O1`, for which the inhibition (at 10 µM) was 29% (inactive) and the inhibition (inhibition, at 1 µM) was -9.46%.

With `O=C1CC(N(CCc2ccccc2)C(=S)Nc2ccccc2)C(=O)N1c1ccc(Br)cc1` (stereo not drawn), the inhibition was 25.6% (inactive) (at 10 µM) and -25.5% (inhibition, at 1 µM).

On to `Clc1ccc(OCCSCc2nc3ccccc3[nH]2)cc1`, for which the inhibition runs as follows: (at 10 µM) -5.52% (inactive); (inhibition, at 1 µM) -20%.

On to `O=C(NCc1nc2ccccc2[nH]1)C1=C[C@H](c2ccc(Br)cc2)C[C@H](OCCCCO)O1`, for which the inhibition runs as follows: (at 10 µM) -2.4% (inactive); (inhibition, at 1 µM) -6.37%.

Regarding `COc1ccc(OCC(O)CNC(=O)Nc2ccc(Cl)cc2)cc1` (stereo not drawn), the inhibition (at 10 µM) is 0.31% (inactive) and the inhibition (inhibition, at 1 µM) was -6.26%.

Consider `O=C(Cn1cnc2ccccc21)Nc1cccc([N+](=O)[O-])c1`, for which the inhibition is, setting by setting: (at 10 µM) -2.2% (inactive); (inhibition, at 1 µM) -15.4%.

Regarding `C[C@H](O)[C@@H]1C(=O)N2CCc3c([nH]c4ccccc34)[C@@H]2C[C@@H]1N(C)Cc1ccc2c(c1)OCO2`, the inhibition (at 10 µM) is 24.8% (inactive) and the inhibition (inhibition, at 1 µM) was -17.7%.

With `COc1ccc2[nH]c3nc(SCC(=O)Nc4ccc5c(c4)OCO5)nnc3c2c1`, the inhibition runs as follows: (at 10 µM) 24.5% (inactive); (inhibition, at 1 µM) 14.3%.

Regarding `O=C(NCc1nc2ccccc2[nH]1)C1=C[C@H](C2CC2)C[C@H](OCc2ccc(CO)cc2)O1`, the inhibition (at 10 µM) was 12.6% (inactive) and the inhibition (inhibition, at 1 µM) is 7.99%.

Take `O=C(NNC(=O)c1ccc(-n2cncn2)c([N+](=O)[O-])c1)c1ccc(Cl)cc1`: the inhibition reads like this: (at 10 µM) -21.4% (inactive); (inhibition, at 1 µM) -30.3%.

Take `O=C(NCc1nc2ccccc2[nH]1)C1=C[C@@H](c2csc3ccccc23)C[C@@H](OCCCCO)O1`: the inhibition by setting is: (at 10 µM) 6.67% (inactive); (inhibition, at 1 µM) -15%.

As for `CC(=O)c1c[nH]c(C(=O)NCc2cccc(C(F)(F)F)c2)c1`, the inhibition runs as follows: (at 10 µM) 43.8% (inactive); (inhibition, at 1 µM) -7.99%.

For the compound `O=C(NCc1nc2ccccc2[nH]1)C1=C[C@H](c2csc3ccccc23)C[C@H](OCCCCO)O1`, the inhibition is, setting by setting: (at 10 µM) 2.21% (inactive); (inhibition, at 1 µM) -9.21%.

On to `O=C(NCc1nc2ccccc2[nH]1)C1=C[C@@H](c2ccc3c(c2)OCO3)C[C@@H](OCCCCO)O1`, for which the inhibition was -0.58% (inactive) (at 10 µM) and -3.63% (inhibition, at 1 µM).

As for `CC(=O)c1ccc(N2CCN(C(=O)CCCn3c(=O)[nH]c4ccc(Br)cc4c3=O)CC2)cc1`, the inhibition reads like this: (at 10 µM) 7.87% (inactive); (inhibition, at 1 µM) -14.1%.

For `O=C(N/C(=C\c1cccnc1)c1nc2ccccc2[nH]1)c1cccc(Br)c1`, the inhibition is 4.89% (inactive) (at 10 µM) and -19.7% (inhibition, at 1 µM).

Turning to `CC(C)(C)[C@@H]1C=C(C(=O)NCc2nc3ccccc3[nH]2)O[C@H](OCc2ccc(CO)cc2)C1`, the inhibition is, setting by setting: (at 10 µM) -5.44% (inactive); (inhibition, at 1 µM) -10.6%.

Turning to `O=C(NCc1nc2ccccc2[nH]1)C1=C[C@@H](C2CC2)C[C@@H](OCc2ccc(CO)cc2)O1`, the inhibition runs as follows: (at 10 µM) 5.87% (inactive); (inhibition, at 1 µM) -11.4%.

Turning to `O=C(NCc1nc2ccccc2[nH]1)C1=C[C@@H](c2ccc(Br)cc2)C[C@@H](OCc2ccc(CO)cc2)O1`, the inhibition was 16.7% (inactive) (at 10 µM) and -11.6% (inhibition, at 1 µM).

As for `COc1ccc(CNC(=O)CSc2nnc3c(n2)[nH]c2ccc(F)cc23)cc1`, the inhibition reads like this: (at 10 µM) -12% (inactive); (inhibition, at 1 µM) -29.7%.

For `Clc1ccc(-c2nnc(SCc3nc4ccccc4[nH]3)o2)c(Cl)c1`, the inhibition was 41.9% (inactive) (at 10 µM) and -3.17% (inhibition, at 1 µM).

As to `O=C(CC=NOCc1ccc([N+](=O)[O-])cc1)Nc1ccc(Br)cc1`, the inhibition runs as follows: (at 10 µM) -6.71% (inactive); (inhibition, at 1 µM) -22.4%.

Consider `CC(CC(=O)Nc1cccc(Br)c1)=NNC(=O)c1ccc(O)cc1O`, for which the inhibition (at 10 µM) is 4.55% (inactive) and the inhibition (inhibition, at 1 µM) was -24.6%.

For the compound `O=C(NNC(=O)c1cc(-c2ccc(Cl)c(Cl)c2)nc2ccccc12)Nc1ccccc1`, the inhibition (at 10 µM) was -11.2% (inactive) and the inhibition (inhibition, at 1 µM) is -17.1%.

Turning to `CC(C)OCCCN1CC(=O)N2C(c3cccc([N+](=O)[O-])c3)c3[nH]c4ccccc4c3C[C@H]2C1=O` (stereo partly drawn), the inhibition was -3.65% (inactive) (at 10 µM) and -24.2% (inhibition, at 1 µM).

Consider `CCO[C@H]1OC(C(=O)NCc2nc3ccccc3[nH]2)=C[C@@H](c2ccc(Br)cc2)[C@@H]1CCCO`, for which the inhibition was 11.7% (inactive) (at 10 µM) and -15% (inhibition, at 1 µM).

On to `CN(CC(=O)Nc1ccc(Cl)cc1)C(=O)c1ccc(-n2cncn2)c([N+](=O)[O-])c1`, for which the inhibition is, setting by setting: (at 10 µM) -19.1% (inactive); (inhibition, at 1 µM) -36.7%.

As for `O=C(Cn1cc(C(=O)C(=O)N2CCOCC2)c2ccccc21)Nc1cccc(C(F)(F)F)c1`, the inhibition (at 10 µM) is -6.56% (inactive) and the inhibition (inhibition, at 1 µM) was -22.4%.

In the case of `O=C(CN1CCSC1=NCc1ccccc1)c1ccc(Cl)c(Cl)c1`, the inhibition is, setting by setting: (at 10 µM) -25.5% (inactive); (inhibition, at 1 µM) -25.1%.

For `CCCCCCCCCC1NC(C(=O)O)Cc2c1[nH]c1ccccc21` (stereo not drawn), the inhibition is 9.9% (inactive) (at 10 µM) and -2.41% (inhibition, at 1 µM).

For `CCO[C@@H]1OC(C(=O)NCc2nc3ccccc3[nH]2)=C[C@H](c2ccc(Br)cc2)[C@H]1CCCO`, the inhibition is -6.53% (inactive) (at 10 µM) and -4.89% (inhibition, at 1 µM).

Turning to `O=C(NCc1nc2ccccc2[nH]1)C1=C[C@H](c2ccc3c(c2)OCO3)C[C@H](OCCCCO)O1`, the inhibition was 10.2% (inactive) (at 10 µM) and -10.7% (inhibition, at 1 µM).

Regarding `Cc1[nH]c2ccc(Br)cc2c(=O)c1CN1CCCCCC1`, the inhibition by setting is: (at 10 µM) -11% (inactive); (inhibition, at 1 µM) -31.2%.

As for `O=C(NCCc1nc2ccccc2[nH]1)c1ccc(Cl)c([N+](=O)[O-])c1`, the inhibition is, setting by setting: (at 10 µM) 25.5% (inactive); (inhibition, at 1 µM) 2.97%.

Regarding `O=C1[C@@H]2Cc3c([nH]c4ccccc34)C(c3cccc([N+](=O)[O-])c3)N2C(=O)CN1CCCO` (stereo partly drawn), the inhibition (at 10 µM) was 4.46% (inactive) and the inhibition (inhibition, at 1 µM) is -17.4%.

`O=C(NCc1nc2ccccc2[nH]1)C1=C[C@@H](c2ccccc2)C[C@@H](OCc2ccc(CO)cc2)O1`: the inhibition runs as follows: (at 10 µM) 15.8% (inactive); (inhibition, at 1 µM) -16.8%.

Turning to `O=C1CC(SCc2nc3ccccc3[nH]2)C(=O)N1c1cccc(Cl)c1` (stereo not drawn), the inhibition by setting is: (at 10 µM) -0.68% (inactive); (inhibition, at 1 µM) -4.5%.

On to `O=C(Nc1ccc(F)c(Cl)c1)C1CC(=O)n2c(nc3ccccc32)N1` (stereo not drawn), for which the inhibition reads like this: (at 10 µM) 4.32% (inactive); (inhibition, at 1 µM) -11.1%.

As for `CN1CC(=O)N2C(c3cccc([N+](=O)[O-])c3)c3[nH]c4ccccc4c3C[C@H]2C1=O` (stereo partly drawn), the inhibition (at 10 µM) was 14% (inactive) and the inhibition (inhibition, at 1 µM) was -17.1%.

On to `O=C(CC(=O)Nc1cccc(Cl)c1)NN=Cc1ccccc1`, for which the inhibition reads like this: (at 10 µM) 9.82% (inactive); (inhibition, at 1 µM) -18.3%.

Take `COc1ccccc1NS(=O)(=O)c1cccc(NC(=O)Nc2ccccc2)c1`: the inhibition (at 10 µM) was 19.1% (inactive) and the inhibition (inhibition, at 1 µM) was -9.69%.

For `O=C(CCC(=O)Nc1cccc([N+](=O)[O-])c1)NN=Cc1cccs1`, the inhibition by setting is: (at 10 µM) -14.1% (inactive); (inhibition, at 1 µM) -28.9%.

For the compound `COc1cccc(NC(=O)CSc2nnc3c(n2)[nH]c2ccc(C)cc23)c1`, the inhibition was 40.4% (inactive) (at 10 µM) and 49.7% (inhibition, at 1 µM).

For the compound `CN(Cc1cc(Cl)cc(Cl)c1)[C@H]1C[C@H]2c3[nH]c4ccccc4c3CCN2C(=O)[C@H]1CO`, the inhibition runs as follows: (at 10 µM) 80.3%; (inhibition, at 1 µM) 14%.

`O=C(CC=NOCc1ccc([N+](=O)[O-])cc1)Nc1ccc(Cl)cc1`: the inhibition (at 10 µM) was 1.47% (inactive) and the inhibition (inhibition, at 1 µM) is -13%.

Regarding `Oc1c(Cl)cc(Cl)cc1CNc1nc2ccccc2[nH]1`, the inhibition is 31.4% (inactive) (at 10 µM) and -0.2% (inhibition, at 1 µM).

Regarding `O=C(NCc1nc2ccccc2[nH]1)C1=C[C@H](c2ccc(Br)cc2)C[C@H](OCc2ccc(CO)cc2)O1`, the inhibition (at 10 µM) is 17.2% (inactive) and the inhibition (inhibition, at 1 µM) came to 0.59%.

Consider `Brc1cnc2nc(SCc3nc4ccccc4[nH]3)[nH]c2c1`, for which the inhibition runs as follows: (at 10 µM) -14.2% (inactive); (inhibition, at 1 µM) -21.5%.

With `Cc1ccc(NC(=O)CN(C)C(=O)CCSc2ccc(F)cc2)cc1`, the inhibition is, setting by setting: (at 10 µM) -21.5% (inactive); (inhibition, at 1 µM) -35.7%.

With `CC(C)(C)[C@H]1C=C(C(=O)NCc2nc3ccccc3[nH]2)O[C@@H](OCc2ccc(CO)cc2)C1`, the inhibition (at 10 µM) was 10.3% (inactive) and the inhibition (inhibition, at 1 µM) was -20.5%.

For `CCOC(=O)N1CCC(Nc2c(Nc3ccc(F)cc3)c(=O)c2=O)CC1`, the inhibition is, setting by setting: (at 10 µM) -4.56% (inactive); (inhibition, at 1 µM) -8.53%.

As to `O=C(C[C@H]1C(=O)N(Cc2ccccc2)C[C@@H]1c1ccc(Br)cc1)Nc1ccc(Br)cc1`, the inhibition reads like this: (at 10 µM) -8.54% (inactive); (inhibition, at 1 µM) -13%.

Consider `O=C(NCc1nc2ccccc2[nH]1)C1=C[C@H](c2ccccc2)C[C@H](OCc2ccc(CO)cc2)O1`, for which the inhibition by setting is: (at 10 µM) 12.7% (inactive); (inhibition, at 1 µM) -8.08%.
